Reference: ChEMBL document CHEMBL2150924, “Inhibition of NaV1.6 sodium channel currents by a novel series of 1,4-disubstituted-triazole derivatives obtained via copper-catalyzed click chemistry” (Bioorg Med Chem Lett, 2012)

Key:
[1] = target: Sodium channel protein type 8 subunit alpha (Rattus norvegicus) (UniProt O88420); assay: Inhibition of rat NaV1.6-mediated current expressed in human HEK293 cells at 10 uM by patch clamp assay; assay type: cell-based
[2] = target: Sodium channel protein type 8 subunit alpha (Rattus norvegicus, UniProt O88420); assay: Inhibition of rat NaV1.6-mediated current expressed in human HEK293 cells by patch clamp assay; assay type: cell-based
Sequence of Sodium channel protein type 8 subunit alpha (O88420 whole entry): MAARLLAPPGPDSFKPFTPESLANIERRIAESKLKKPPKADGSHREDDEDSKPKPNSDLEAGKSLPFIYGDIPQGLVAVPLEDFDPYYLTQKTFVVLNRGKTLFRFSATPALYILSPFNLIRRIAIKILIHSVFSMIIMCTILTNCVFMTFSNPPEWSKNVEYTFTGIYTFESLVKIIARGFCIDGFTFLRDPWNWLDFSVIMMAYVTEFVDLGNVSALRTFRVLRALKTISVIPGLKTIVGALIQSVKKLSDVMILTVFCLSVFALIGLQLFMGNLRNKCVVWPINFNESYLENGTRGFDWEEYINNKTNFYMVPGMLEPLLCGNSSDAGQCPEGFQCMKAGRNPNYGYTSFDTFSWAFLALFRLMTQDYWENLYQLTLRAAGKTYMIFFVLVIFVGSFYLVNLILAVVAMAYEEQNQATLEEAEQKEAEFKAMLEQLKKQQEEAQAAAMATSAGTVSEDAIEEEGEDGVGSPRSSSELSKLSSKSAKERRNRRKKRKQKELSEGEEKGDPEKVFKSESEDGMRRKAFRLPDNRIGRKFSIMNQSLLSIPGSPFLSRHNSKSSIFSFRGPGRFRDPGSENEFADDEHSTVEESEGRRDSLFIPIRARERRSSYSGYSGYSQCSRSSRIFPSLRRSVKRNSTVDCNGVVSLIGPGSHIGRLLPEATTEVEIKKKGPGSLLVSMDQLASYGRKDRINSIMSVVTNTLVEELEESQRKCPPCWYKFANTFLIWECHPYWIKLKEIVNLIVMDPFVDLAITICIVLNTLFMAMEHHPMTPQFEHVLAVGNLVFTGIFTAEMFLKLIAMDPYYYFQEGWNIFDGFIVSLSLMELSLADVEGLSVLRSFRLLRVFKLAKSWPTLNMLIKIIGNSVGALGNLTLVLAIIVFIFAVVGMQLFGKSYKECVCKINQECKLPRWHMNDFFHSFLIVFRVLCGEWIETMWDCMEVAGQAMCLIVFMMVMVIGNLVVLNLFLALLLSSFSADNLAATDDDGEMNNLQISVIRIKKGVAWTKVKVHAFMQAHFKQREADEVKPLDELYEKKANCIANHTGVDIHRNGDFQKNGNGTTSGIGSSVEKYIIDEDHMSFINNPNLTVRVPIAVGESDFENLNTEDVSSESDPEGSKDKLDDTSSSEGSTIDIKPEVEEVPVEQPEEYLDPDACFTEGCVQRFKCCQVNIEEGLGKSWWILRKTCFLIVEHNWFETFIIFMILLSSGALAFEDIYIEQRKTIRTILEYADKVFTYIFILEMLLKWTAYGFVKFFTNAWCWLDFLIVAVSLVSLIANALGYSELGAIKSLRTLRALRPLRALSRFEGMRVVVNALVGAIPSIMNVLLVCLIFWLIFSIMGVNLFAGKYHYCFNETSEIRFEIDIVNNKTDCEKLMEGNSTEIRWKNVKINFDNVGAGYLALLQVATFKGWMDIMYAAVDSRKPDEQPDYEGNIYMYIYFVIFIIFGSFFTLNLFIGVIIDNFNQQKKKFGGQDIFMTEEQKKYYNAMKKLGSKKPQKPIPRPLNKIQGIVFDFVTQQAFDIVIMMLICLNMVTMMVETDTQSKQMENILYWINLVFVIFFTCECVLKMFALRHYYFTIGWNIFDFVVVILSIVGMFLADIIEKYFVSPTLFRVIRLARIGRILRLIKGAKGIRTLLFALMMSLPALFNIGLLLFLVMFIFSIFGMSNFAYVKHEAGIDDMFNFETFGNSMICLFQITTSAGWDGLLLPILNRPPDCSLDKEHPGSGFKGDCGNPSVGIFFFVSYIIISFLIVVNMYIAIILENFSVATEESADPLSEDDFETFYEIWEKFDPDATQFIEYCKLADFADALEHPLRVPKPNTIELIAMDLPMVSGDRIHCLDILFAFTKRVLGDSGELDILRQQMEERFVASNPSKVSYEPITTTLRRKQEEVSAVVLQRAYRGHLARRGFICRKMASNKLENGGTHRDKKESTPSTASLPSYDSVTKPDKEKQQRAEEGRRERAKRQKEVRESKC

Sequence of Sodium channel protein type 8 subunit alpha (Rattus norvegicus) (O88420 whole entry): as above

inhibition [1]	IC50 [2]	SMILES
22.7%	52 µM	c1ccc(CCn2cc(CCCOc3ccccc3)nn2)cc1
16%	28.5 µM	c1ccc(OCc2cn(-c3ccccc3)nn2)cc1
8.9%	–	c1ccc(CCn2cc(COc3ccccc3)nn2)cc1
26%	31.7 µM	c1ccc(Cn2cc(CCCOc3ccccc3)nn2)cc1
6.2%	–	c1ccc(-c2cn(-c3ccccc3)nn2)cc1
5.9%	–	c1ccc(OCCCc2cn(-c3ccccc3)nn2)cc1
11%	–	c1ccc(Cn2cc(COc3ccccc3)nn2)cc1
22.7%	53.6 µM	O=C(Cn1cc(CCCOc2ccccc2)nn1)c1ccccc1

More lines, now with the values behind:

SMILES	inhibition [1]	IC50 [2]
O=C(Cn1cc(-c2ccccc2)nn1)c1ccccc1	3.9%	–
O=C(Cn1cc(COc2ccccc2)nn1)c1ccccc1	13.6%	–
c1ccc(-c2c[nH]c(-c3ccccc3)n2)cc1	16%	–
COc1ccc(-c2nc(-c3ccccc3)c[nH]2)cc1	21.7%	19.6 µM
c1ccc(CCn2cc(-c3ccccc3)nn2)cc1	11.5%	–
c1ccc(Cn2cc(-c3ccccc3)nn2)cc1	10%	125 µM
